From patent publication US10405547B2, “Substituted cyclic amides as herbicides” (FMC Corporation, priority 2015, dated 2019)

Assays:
Format in all cases: in vivo
[1] = tested on: pigweed (Amaranthus retroflexus); assay: Test A postemergence, pigweed; conditions: visual injury, 0 to 100 scale (0 no effect, 100 complete control), approximately 10 days
Procedure, shortened: (§1)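 Visual injury on a 0 to 100 scale, about 10 days post-spray in the greenhouse. Postemergence plants measured 2–10 cm at one to two leaves; preemergence pots received a directed soil spray. Soil was a loam–sand blend.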

[2] = tested on: ragweed (common ragweed, Ambrosia elatior); assay: Test A postemergence, ragweed; conditions: visual injury, 0 to 100 scale (0 no effect, 100 complete control), approximately 10 days
Procedure, shortened: as §1

[3] = tested on: barnyardgrass (Echinochloa crus-galli); assay: Test A preemergence, barnyardgrass; conditions: 0 to 100 scale (0 no effect, 100 complete control)
Procedure, shortened: as §1

kochia (Kochia scoparia) [4] = assay: Test A postemergence, kochia; conditions: visual injury, 0 to 100 scale (0 no effect, 100 complete control), approximately 10 days
Procedure, shortened: as §1

[5] = tested on: barnyardgrass (Echinochloa crus-galli); assay: Test A postemergence, barnyardgrass; conditions: visual injury, 0 to 100 scale (0 no effect, 100 complete control), approximately 10 days
Procedure, shortened: as §1

[6] = tested on: galium (catchweed bedstraw, Galium aparine); assay: Test A postemergence, galium; conditions: visual injury, 0 to 100 scale (0 no effect, 100 complete control), approximately 10 days
Procedure, shortened: as §1

rice (Oryza sativa) = assay: Test B flooded paddy test, rice; conditions: 250 g ai/ha, applied to paddy water, visual rating after 13 to 15 days, scale 0 (no effect) to 100 (complete control)
Description: (§2) At time of treatment, test pots were flooded to 3 cm above the soil surface, treated by application of test compounds directly to the paddy water, and then maintained at that water depth for the duration of the test. Treated plants and controls were maintained in a greenhouse for 13 to 15 days, after which time all species were compared to controls and visually evaluated. […] A dash (-) response means no test result.

[7] = tested on: pigweed (Amaranthus retroflexus); assay: Test A preemergence, pigweed; conditions: 0 to 100 scale (0 no effect, 100 complete control)
Procedure, shortened: as §1

[8] = tested on: wheat (Triticum aestivum); assay: Test A postemergence, wheat; conditions: visual injury, 0 to 100 scale (0 no effect, 100 complete control), approximately 10 days
Procedure, shortened: as §1

[9] = tested on: foxtail, giant (Setaria faberii); assay: Test A postemergence, giant foxtail; conditions: visual injury, 0 to 100 scale (0 no effect, 100 complete control), approximately 10 days
Procedure, shortened: as §1

[10] = tested on: ryegrass, Italian (Lolium multiflorum); assay: Test A postemergence, Italian ryegrass; conditions: visual injury, 0 to 100 scale (0 no effect, 100 complete control), approximately 10 days
Procedure, shortened: as §1

[11] = tested on: foxtail, giant (Setaria faberii); assay: Test A preemergence, giant foxtail; conditions: 0 to 100 scale (0 no effect, 100 complete control)
Procedure, shortened: as §1

[12] = tested on: sedge, umbrella (small-flower umbrella sedge, Cyperus difformis); assay: Test B flooded paddy test, umbrella sedge; conditions: 250 g ai/ha, applied to paddy water, visual rating after 13 to 15 days, scale 0 (no effect) to 100 (complete control)
Description: as §2

[13] = tested on: ducksalad (Heteranthera limosa); assay: Test B flooded paddy test, ducksalad; conditions: 250 g ai/ha, applied to paddy water, visual rating after 13 to 15 days, scale 0 (no effect) to 100 (complete control)
Description: as §2

corn (Zea mays) = assay: Test A postemergence, corn; conditions: visual injury, 0 to 100 scale (0 no effect, 100 complete control), approximately 10 days
Procedure, shortened: as §1

[14] = tested on: barnyardgrass (Echinochloa crus-galli); assay: Test B flooded paddy test, barnyardgrass; conditions: 250 g ai/ha, applied to paddy water, visual rating after 13 to 15 days, scale 0 (no effect) to 100 (complete control)
Description: as §2

[15] = tested on: blackgrass (Alopecurus myosuroides); assay: Test A postemergence, blackgrass; conditions: visual injury, 0 to 100 scale (0 no effect, 100 complete control), approximately 10 days
Procedure, shortened: as §1

[16] = tested on: ragweed (common ragweed, Ambrosia elatior); assay: Test A preemergence, ragweed; conditions: 0 to 100 scale (0 no effect, 100 complete control)
Procedure, shortened: as §1

kochia (Kochia scoparia) [17] = assay: Test A preemergence, kochia; conditions: 0 to 100 scale (0 no effect, 100 complete control)
Procedure, shortened: as §1

[18] = tested on: ryegrass, Italian (Lolium multiflorum); assay: Test A preemergence, Italian ryegrass; conditions: 0 to 100 scale (0 no effect, 100 complete control)
Procedure, shortened: as §1

Structure (SMILES)	Plant response rating, Pigweed ([1]; 125 g ai/ha)	Plant response rating, Pigweed ([1]; 500 g ai/ha)	Plant response rating, Ragweed ([2]; 125 g ai/ha)	Plant response rating, Ragweed ([2]; 500 g ai/ha)	Plant response rating, Barnyardgrass ([3]; 125 g ai/ha)	Plant response rating, Barnyardgrass ([3]; 500 g ai/ha)	Plant response rating, Barnyardgrass ([5]; 125 g ai/ha)	Plant response rating, Barnyardgrass ([5]; 500 g ai/ha)	Plant response rating, Galium ([6]; 125 g ai/ha)	Plant response rating, Galium ([6]; 500 g ai/ha)	Plant response rating, Rice (Flood) (rice (Oryza sativa))	Plant response rating, Pigweed ([7]; 125 g ai/ha)	Plant response rating, Pigweed ([7]; 500 g ai/ha)	Plant response rating, Wheat ([8]; 125 g ai/ha)	Plant response rating, Wheat ([8]; 500 g ai/ha)	Plant response rating, Foxtail, Giant ([9]; 125 g ai/ha)	Plant response rating, Foxtail, Giant ([9]; 500 g ai/ha)	Plant response rating, Ryegrass, Italian ([10]; 125 g ai/ha)	Plant response rating, Ryegrass, Italian ([10]; 500 g ai/ha)	Plant response rating, Foxtail, Giant ([11]; 125 g ai/ha)	further results
O=C1NCC(c2cccc(OCC3OCCO3)c2)C1C(=O)Nc1cccc(F)c1F (stereo not shown) [Compound 7]	0	0	0	20	60	90	40	70	20	40	0	60	60	0	40	20	70	0	20	90	Plant response rating, Kochia (kochia (Kochia scoparia) [4]; 125 g ai/ha): 0; Plant response rating, Kochia (kochia (Kochia scoparia) [4]; 500 g ai/ha): 0; Plant response rating, Foxtail, Giant ([11]; 500 g ai/ha): 90; Plant response rating, Sedge, Umbrella (Flood) [12]: 0; Plant response rating, Ducksalad (Flood) [13]: 75; Plant response rating, Corn (corn (Zea mays); 125 g ai/ha): 0; Plant response rating, Corn (corn (Zea mays); 500 g ai/ha): 20; Plant response rating, Barnyardgrass (Flood) [14]: 0; Plant response rating, Blackgrass ([15]; 125 g ai/ha): 0; Plant response rating, Blackgrass ([15]; 500 g ai/ha): 40; Plant response rating, Ragweed ([16]; 125 g ai/ha): 0; Plant response rating, Ragweed ([16]; 500 g ai/ha): 0; Plant response rating, Kochia (kochia (Kochia scoparia) [17]; 125 g ai/ha): 0; Plant response rating, Kochia (kochia (Kochia scoparia) [17]; 500 g ai/ha): 0; Plant response rating, Ryegrass, Italian ([18]; 125 g ai/ha): 30; Plant response rating, Ryegrass, Italian ([18]; 500 g ai/ha): 30
CN1CC(c2cccc(Oc3ccc(F)cn3)c2)C(C(=O)Nc2cccc(F)c2F)C1=O (single isomer, unassigned) [Compound 61]	40	70	40	50	90	90	70	80	60	70	0	70	90	50	80	90	90	70	70	90	Plant response rating, Foxtail, Giant ([11]; 500 g ai/ha): 90; Plant response rating, Sedge, Umbrella (Flood) [12]: 0; Plant response rating, Ducksalad (Flood) [13]: 100; Plant response rating, Corn (corn (Zea mays); 125 g ai/ha): 70; Plant response rating, Corn (corn (Zea mays); 500 g ai/ha): 90; Plant response rating, Barnyardgrass (Flood) [14]: 40; Plant response rating, Blackgrass ([15]; 125 g ai/ha): 40; Plant response rating, Blackgrass ([15]; 500 g ai/ha): 50; Plant response rating, Ragweed ([16]; 125 g ai/ha): 30; Plant response rating, Ragweed ([16]; 500 g ai/ha): 60; Plant response rating, Kochia (kochia (Kochia scoparia) [17]; 125 g ai/ha): 60; Plant response rating, Kochia (kochia (Kochia scoparia) [17]; 500 g ai/ha): 80; Plant response rating, Ryegrass, Italian ([18]; 125 g ai/ha): 80; Plant response rating, Ryegrass, Italian ([18]; 500 g ai/ha): 90
